Test results as given in patent US12729221B2, “Anti-inflammatory peptide and use thereof” (MITO QUEST CO., LTD., priority 2020, dated 2026).
Where no end group is shown, it is not given here.

Experiments:
[1] = test system: interleukin-6 (IL-6); assay: LPS-induced IL-6 expression in IC21, ELISA; assay type: cell-based, mouse; conditions: 0.1 mg/ml LPS, 6 hours, FIG. 12A-A
Protocol: Specifically, LPS was used to induce an inflammatory response caused by bacterial infection. First, MQP-15, MQP-23, MQP-31, MQP-37 or MQP-Y9 was added to a serum-free cell culture medium containing 0.1 mg/ml LPS, followed by treatment with 1×10^5 cells of IC21 for 6 hours. Then, the supernatant was obtained and the expression levels of interleukin-6 (IL-6) and a tumor necrosis factor-alpha (TNF-a) were checked by ELISA.

[2] = biological target: recombinant MAVS protein (Homo sapiens, UniProt Q7Z434); assay: Binding of fluorescence-labeled peptides to plate-coated recombinant MAVS protein
Sequence of recombinant MAVS protein (Q7Z434 whole entry, species assumed): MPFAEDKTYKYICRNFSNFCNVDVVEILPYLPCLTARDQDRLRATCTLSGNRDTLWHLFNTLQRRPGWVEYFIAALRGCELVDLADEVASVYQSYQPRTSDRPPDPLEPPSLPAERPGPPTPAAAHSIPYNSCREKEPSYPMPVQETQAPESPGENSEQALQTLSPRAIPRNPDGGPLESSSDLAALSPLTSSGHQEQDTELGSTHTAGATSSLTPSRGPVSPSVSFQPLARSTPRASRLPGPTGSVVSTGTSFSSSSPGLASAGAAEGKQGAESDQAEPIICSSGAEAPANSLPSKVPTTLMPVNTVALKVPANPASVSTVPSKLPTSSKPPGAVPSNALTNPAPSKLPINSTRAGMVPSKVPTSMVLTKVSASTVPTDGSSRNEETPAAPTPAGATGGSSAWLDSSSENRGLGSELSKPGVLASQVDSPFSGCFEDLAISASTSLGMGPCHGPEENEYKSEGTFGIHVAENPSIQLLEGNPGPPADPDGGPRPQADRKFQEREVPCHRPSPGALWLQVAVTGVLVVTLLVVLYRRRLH
Protocol: Specifically, recombinant MAVS protein and fluorescence-labeled peptides MQP-37 and MQP-37A6 were used to check the binding affinity to the MAVS protein. First, 250 ng of recombinant MAVS protein was coated on a 96-well plate for ELISA, followed by blocking with 1% BSA/PBS solution. Thereafter, fluorescence-labeled peptides of various concentrations were added thereto and reacted for 2 hours, and the amount of peptide bound to the MAVS protein was checked by fluorescence measurement.

[3] = test system: NF-κB; assay: LPS-induced phosphorylation of NF-kB in IC21, Western blot; assay type: cell-based, mouse; conditions: LPS, Western blot, FIGS. 12B-D to 12B-F
From the text: Specifically, LPS was used to induce an immune activation response caused by bacterial infection, and the phosphorylation of nuclear factor kappa-light-chain-enhancer of activated B cells (NF-kB) was checked to identify the mechanism of the immune activation response. […] Thereafter, the cells were washed with a PBS solution and then lysed with a RIPA buffer, and the supernatant was separated. In order to measure the change in the phosphorylation amount of NF-κB protein with the separated supernatant, the Western blot was performed as in Example 2.

[4] = test system: interferon-beta (IFN-b); assay: polyIC-induced IFN-b expression in MLE-12 cells, ELISA; assay type: cell-based, mouse; conditions: 5 mg/ml polyIC, 16 hours, 25 mM or 2 mM peptide, FIG. 9A
Protocol: Specifically, polyinosinic:polycytidylic acid (polyIC), which is a synthetic ribonucleic acid known to be associated with viral infection among the PAMPs and promotes the production of interferon and is analogous to an RNA virus gene, was used to induce a viral infection response. First, a serum-free cell culture medium containing 5 mg/ml polyIC and MQP-15, MQP-23, MQP-31, MQP-37, MQP-Y9 or MQP-T234 was treated with 1×10^5 cells of a mouse lung epithelial cell line (MLE-12) for 16 hours. Then, the supernatant was obtained and the expression level of interferon-beta (IFN-b) was checked by enzyme-linked immunosorbent assay (ELISA).
(§1) Specifically, LPS and ATP were used to induce an inflammasome response caused by bacterial infection, and polyIC was used to induce an inflammatory response caused by viral infection. First, 1 mg/ml LPS and 5 mM or 1 mM novel alanine-substituted peptide were mixed in a serum-free cell culture medium, followed by treatment with 1×10^5 cells of IC21. Thereafter, 5 mM ATP and 5 mM or 1 mM novel alanine-substituted peptide were mixed in a serum-free cell culture medium and treated for 30 minutes. Then, the supernatant was obtained and the expression level of IL-1b was checked by ELISA. Also, 5 mg/ml polyIC and 25 mM or 2 mM novel alanine-substituted peptide were mixed in a serum-free cell culture medium, followed by treatment with 1×10^5 cells of MLE-12 for 16 hours. Thereafter, the supernatant was obtained and the expression level of IFN-b was checked by ELISA.
as §1, with “2” for “5 mM or 1”, “amino acid-substituted” for “alanine-substituted”, “and” for “and 25 mM or”
Specifically, polyIC was used to induce a viral infection response. First, a serum-free cell culture medium containing 5 mg/ml polyIC and MQP-37, MQP-37A6, MQP-37D6W, MQP-37D6Y, MQP-37D6H, MQP-37D6K, MQP-37D6R or MQP-37D6V was treated with 1×10^5 cells of MLE-12 for 16 hours. Then, the supernatant was obtained and the expression level of IFN-b was checked by ELISA.

[5] = test system: IL-1b; assay: LPS/ATP-induced IL-1b expression (inflammasome response) in IC21, ELISA; assay type: cell-based, mouse; conditions: 1 mg/ml LPS, 5 mM ATP 30 minutes
Protocol: as §1
as §1, with “2” for “5 mM or 1”, “amino acid-substituted” for “alanine-substituted”, “and” for “and 25 mM or”
Specifically, LPS was used to induce an inflammatory response caused by bacterial infection. First, MQP-37 or MQP-37A6 was added to a serum-free cell culture medium containing 0.1 mg/ml LPS, followed by treatment with 1×10^5 cells of IC21 for 6 hours. Then, the supernatant was obtained and the expression level of IL-6 was checked by ELISA. Also, the Western blot was performed and the phosphorylation of NF-κB was checked to identify the mechanism of immune activation response. Thereafter, LPS and ATP were used to induce an inflammasome response caused by bacterial infection, LPS and ATP were used. First, 1 mg/ml LPS and L- or D-MQP-37 and MQP-37A6 were mixed in a serum-free cell culture medium and treated with 1×10^5 cells of IC21. Then, 5 mM ATP and MQP-37 or MQP-37A6 were mixed in a serum-free cell culture medium and treated for 30 minutes. Thereafter, the supernatant was obtained and the expression level of IL-1b was checked by ELISA.

[6] = test system: mouse sepsis models induced by LPS; assay: Mouse sepsis model induced by LPS, survival; assay type: in vivo, C57BL/6 wild-type mice
Protocol: Specifically, 2 mg/kg and 5 mg/kg LPS were administered into the abdominal cavity of 7-week-old C57BL/6 wild-type mice every 6 hours, and 1 hour later, 0.4 mg/kg, 2 mg/kg and 10 mg/kg novel peptides were additionally administered into the abdominal cavity of the mice. Then, the survival of the mice was checked for 4 days.

SLVLAAARW [MQP-37A6]
inflammatory response caused by bacterial infection (IL-6), compared with MQP-37 [1]: more than the original peptide MQP-37
Kd [2]: ~750 µM
immune activation response (NF-κB phosphorylation), compared with MQP-37 [3]: more than the original peptide MQP-37
inflammatory response caused by viral infection (IFN-b), compared to original MQP-37 [4]: significantly improved
inflammasome response caused by bacterial infection (IL-1b), sixth amino acid of MQP-37 substituted ([5]; 2 mM peptide, FIG. 10A-B): most effectively
inflammasome response caused by bacterial infection (IL-1b), compared to original MQP-37 ([5]; 5 mM or 1 mM peptide, FIG. 9A): significantly improved
inflammasome response caused by bacterial infection (IL-1b), compared with MQP-37 ([5]; FIGS. 12A-B and 12A-C): more than the original peptide MQP-37
treating sepsis [6]: effective
